Results: the supplement of paper PMC6470124

Assays:
[1] = absolute recovery over vacuum-assisted evaporative concentration; higher = better recovery; details: enrichment method: VEC
Outline: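 After spiking with standards before concentration, after concentration or not at all, at 1000 ng/L for wastewater or 200 ng/L for nanopure and surface water with class- and compound-specific adjustments, samples of 6 mL influent, 15 mL effluent and 60 mL surface or nanopure water were evaporated at 55 °C and 20 mbar to about 0.3 mL. They were brought to 0.4 mL, centrifuged, given internal standards and analysed by LC-HRMS/MS. Absolute recovery, (response ratio pre − unspiked)/(post − unspiked) × 100, used averages of ≥ 2 replicates.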

[2] = absolute recovery over mixed-bed multilayer solid-phase extraction; higher = better recovery; details: enrichment method: SPE
Outline: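 Absolute recovery rests on background-corrected response ratios of pre- versus post-spiked samples, averaged over at least two replicates. Wastewater (100–250 mL, pH 6.5, glass-fibre filtered) was spiked at 1000 ng/L and unfiltered nanopure water (1000 mL) at 200 ng/L, before or after three-layer mixed-bed cartridge extraction or not at all, with exceptions for some classes. Analysis after internal standard addition used liquid chromatography with high-resolution tandem mass spectrometry in both ionisation modes.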

[3] = LC retention time (Atlantis T3, 5-95% MeOH gradient, 0.1% formic acid); higher = more retained / less polar
Outline: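 Retention times were recorded for reference standards (purity ≥ 95%) on a polar reversed-phase C18 column (Atlantis T3, 3 × 150 mm, 3 μm) at 0.3 mL/min. Elution used water and methanol, each with 0.1% formic acid, in a gradient from 5 to 95% methanol over 17.5 min. Detection was by high-resolution tandem mass spectrometry on a QExactive Plus, with positive and negative electrospray in separate runs. Peaks were found and integrated in TraceFinder (5 ppm tolerance, at least three points per peak) and then checked by hand.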

Structure (SMILES)	absolute recovery ([1]; wastewater effluent) [%]	absolute recovery ([1]; wastewater influent) [%]	absolute recovery ([2]; nanopure water) [%]	absolute recovery ([2]; surface water) [%]	absolute recovery ([2]; wastewater effluent) [%]	absolute recovery ([2]; wastewater influent) [%]	LC retention time [3] [min]
C[NH2+]CCC(c1ccccc1)c1ccccn1 (centres undefined) [N-desmethylpheniramine]	106	109	59.5	65.4	65.1	81.3	10.8
CC(=O)Nc1ccc(S(=O)(=O)[N-]c2nc(C)cc(C)n2)cc1 [N4-Acetyl-Sulfamethazin]	108	97.1	86.9	91	93.2	93.2	13.1
CC(C)(C)c1n[nH]c(=O)n(N)c1=O [Metribuzin-Diketo (=DK)]	91.2	96.4	94.5	–	–	–	15.6
CC(C)(Oc1ccc(CCNC(=O)c2ccc(Cl)cc2)cc1)C(=O)[O-] [Bezafibrat]	104	103	98	98.8	92.9	94	19.5
COP(=O)(OC)OC=C(Cl)Cl [Dichlorvos]	34.5	39.6	63.4	47.3	60	87.4	16.8
c1ccc(C2CN3CCSC3=[NH+]2)cc1 (centres undefined) [Levamisol]	104	98.7	84.8	81.9	83.8	82	9.66
COc1cccc(C2(O)CCCCC2C[NH3+])c1 (centres undefined) [N-Bisdesmethyl-Tramadol]	105	98.5	50.1	47.4	46.3	70.2	12.8
Cc1cc(C)nc(Nc2ccccc2)n1 [Pyrimethanil]	88.8	86.4	89.2	91.1	91.4	90.3	18.3
CON(C)C(=O)Nc1ccc(Cl)c(Cl)c1 [Linuron]	101	99.8	96.5	98.3	92.4	93.3	19.5
CC(=O)Nc1c(I)c(NC(C)=O)c(I)c(C(=O)[O-])c1I [Diatrizoate (=Amidotrizoic-acid)]	100	102	69	74.5	73.8	65.1	10
N#Cc1nn(-c2c(Cl)cc(C(F)(F)F)cc2Cl)c(N)c1SC(F)(F)F [Fipronil-sulfid]	118	137	105	107	89.4	121	20.5
CCCS(=O)(=O)[O-] [1-Propanesulfonate]	107	102	4.8	0.3	0.9	1.7	6.6
COc1ccc(CN(CC[NH+](C)C)c2ccccn2)cc1 [Pyrilamine]	94	99.9	83.7	87	87.3	88.2	18.4
CC(C)[NH2+]CC(O)COc1ccc(COCCOC(C)C)cc1 (centres undefined) [Bisoprolol]	110	98.1	103	91.8	91.4	89.8	13.8
O=C1C=CC(=C2NC=CNC2=O)C=C1 [Amoxicillin-EP-Impurity-F]	105	107	76.8	79.4	82.1	91.7	12.3
O=C(C1CCCCC1)N1CC(=O)N2CCc3ccccc3C2C1 (centres undefined) [Praziquantel]	88.4	89.8	98.3	86.5	87.2	98.8	19.5
COC(=O)C1C2CC3c4[nH]c5cc(OC)ccc5c4CC[NH+]3CC2CC(OC(=O)c2cc(OC)c(OC)c(OC)c2)C1OC (centres undefined) [Reserpin]	21.6	64.3	64.2	81.9	80.1	64.2	15.9
NC(=O)c1cn(Cc2c(F)cccc2F)nn1 [Rufinamid]	98.5	104	122	101	100	92.3	14
N#Cc1c(Cl)c(Cl)c([O-])c(C(=[NH2+])[O-])c1Cl	109	105	101	99.6	94.8	–	16.8
CCCCC(C#N)(Cn1cncn1)c1ccc(Cl)cc1 (centres undefined) [Myclobutanil]	109	101	102	91.9	94	85.1	19.8
CC(=O)N(CC(O)CN(C(C)=O)c1c(I)c(C(=O)NCC(O)CO)c(I)c(C(=O)NCC(O)CO)c1I)c1c(I)c(C(=O)NCC(O)CO)c(I)c(C(=O)NCC(O)CO)c1I (centres undefined) [Iodixanol]	149	–	102	–	–	–	10.7
